Data: patent publication US5563172A, “Macrocyclic amide and urea immunomodulators” (Abbott Laboratories, priority 1994, dated 1996)

System: human mixed lymphocyte reaction (MLR)
Assay: human mixed lymphocyte reaction (MLR) assay, immunosuppressant activity
Type: cell-based
Details: Table 1
Description: The immunosuppressant activity of the compounds of the present invention was determined using the human mixed lymphocyte reaction (MLR) assay described by Kino, T. et al. in Transplantation Proceedings, XIX(5):36-39,Suppl. 6 (1987).

Row | Compound | IC50 [nM]
1 | CCC1C=C(C)CC(C)CC(OC)C2OC(O)(C(=O)C(=O)N3CCCCC3C(=O)OC(C(C)=CC3CCC(OCNC(=O)N4CCOCC4)C(OC)C3)C(C)C(O)CC1=O)C(C)CC2OC (centres unmarked) [Example 111] | 1.8
2 | CCC1C=C(C)CC(C)CC(OC)C2OC(O)(C(=O)C(=O)N3CCCCC3C(=O)OC(C(C)=CC3CCC(OCC(=O)OCc4ccccc4)C(OC)C3)C(C)C(O)CC1=O)C(C)CC2OC (centres unmarked) [Example 2] | 7.6
3 | CCC1C=C(C)CC(C)CC(OC)C2OC(O)(C(=O)C(=O)N3CCCCC3C(=O)OC(C(C)=CC3CCC(OCC(=O)Nc4ccc(F)cc4)C(OC)C3)C(C)C(O)CC1=O)C(C)CC2OC (centres unmarked) [Example 54] | 0.02
4 | CCC1C=C(C)CC(C)CC(OC)C2OC(O)(C(=O)C(=O)N3CCCCC3C(=O)OC(C(C)=CC3CCC(OCC(=O)Nc4ccccn4)C(OC)C3)C(C)C(O)CC1=O)C(C)CC2OC (centres unmarked) [Example 59] | 0.05
5 | CCC1C=C(C)CC(C)CC(OC)C2OC(O)(C(=O)C(=O)N3CCCCC3C(=O)OC(C(C)=CC3CCC(OCC(=O)Nc4ccc(C(F)(F)F)cc4)C(OC)C3)C(C)C(O)CC1=O)C(C)CC2OC (centres unmarked) [Example 53] | 0.2
6 | CCC1C=C(C)CC(C)CC(OC)C2OC(O)(C(=O)C(=O)N3CCCCC3C(=O)OC(C(C)=CC3CCC(OCC(=O)NNC(=O)c4ccncc4)C(OC)C3)C(C)C(O)CC1=O)C(C)CC2OC (centres unmarked) [Example 71] | 0.1
7 | CCC1C=C(C)CC(C)CC(OC)C2OC(O)(C(=O)C(=O)N3CCCCC3C(=O)OC(C(C)=CC3CCC(OCC(=O)Nc4ccncc4)C(OC)C3)C(C)C(O)CC1=O)C(C)CC2OC (centres unmarked) [Example 58] | 0.15
8 | CCC1C=C(C)CC(C)CC(OC)C2OC(O)(C(=O)C(=O)N3CCCCC3C(=O)OC(C(C)=CC3CCC(OCC(=O)Nc4cccc(F)c4)C(OC)C3)C(C)C(O)CC1=O)C(C)CC2OC (centres unmarked) [Example 72] | 0.08
9 | CCC1C=C(C)CC(C)CC(OC)C2OC(O)(C(=O)C(=O)N3CCCCC3C(=O)OC(C(C)=CC3CCC(OCC(=O)NCc4ccccc4)C(OC)C3)C(C)C(O)CC1=O)C(C)CC2OC (centres unmarked) [Example 4] | 0.5
10 | CCC1C=C(C)CC(C)CC(OC)C2OC(O)(C(=O)C(=O)N3CCCCC3C(=O)OC(C(C)=CC3CCC(OCC(=O)N(C)CCc4ccccc4)C(OC)C3)C(C)C(O)CC1=O)C(C)CC2OC (centres unmarked) [Example 83] | 0.4
11 | CCC1C=C(C)CC(C)CC(OC)C2OC(O)(C(=O)C(=O)N3CCCCC3C(=O)OC(C(C)=CC3CCC(OCC(=O)Nc4cccnc4)C(OC)C3)C(C)C(O)CC1=O)C(C)CC2OC (centres unmarked) [Example 57] | 0.1
12 | CCC1C=C(C)CC(C)CC(OC)C2OC(O)(C(=O)C(=O)N3CCCCC3C(=O)OC(C(C)=CC3CCC(OCC(=O)NCCc4ccccc4)C(OC)C3)C(C)C(O)CC1=O)C(C)CC2OC (centres unmarked) [Example 82] | 0.3
13 | CCC1C=C(C)CC(C)CC(OC)C2OC(O)(C(=O)C(=O)N3CCCCC3C(=O)OC(C(C)=CC3CCC(OCNC(=O)Nc4ccccc4)C(OC)C3)C(C)C(O)CC1=O)C(C)CC2OC (centres unmarked) [Example 112] | 0.1
14 | CCC1C=C(C)CC(C)CC(OC)C2OC(O)(C(=O)C(=O)N3CCCCC3C(=O)OC(C(C)=CC3CCC(OCC(=O)NCCCN4CCOCC4)C(OC)C3)C(C)C(O)CC1=O)C(C)CC2OC (centres unmarked) [Example 87] | 1.1

More lines, now with the values ahead:

Row | IC50 [nM] | Compound
15 | 0.5 | CCC1C=C(C)CC(C)CC(OC)C2OC(O)(C(=O)C(=O)N3CCCCC3C(=O)OC(C(C)=CC3CCC(OCC(=O)NCCCN(C)C)C(OC)C3)C(C)C(O)CC1=O)C(C)CC2OC (centres unmarked) [Example 89]
16 | 0.9 | CCOC(=O)COC1CCC(C=C(C)C2OC(=O)C3CCCCN3C(=O)C(=O)C3(O)OC(C(OC)CC(C)CC(C)=CC(CC)C(=O)CC(O)C2C)C(OC)CC3C)CC1OC (centres unmarked) [Example 1]
17 | 0.04 | CCC1C=C(C)CC(C)CC(OC)C2OC(O)(C(=O)C(=O)N3CCCCC3C(=O)OC(C(C)=CC3CCC(OCC(=O)Nc4cccc(O)c4)C(OC)C3)C(C)C(O)CC1=O)C(C)CC2OC (centres unmarked) [Example 73]
18 | 140 | CCC1C=C(C)CC(C)CC(OC)C2OC(O)(C(=O)C(=O)N3CCCCC3C(=O)OC(C(C)=CC3CCC(OCC(=O)O)C(OC)C3)C(C)C(O)CC1=O)C(C)CC2OC (centres unmarked) [Example 3]
19 | 0.5 | CCC1C=C(C)CC(C)CC(OC)C2OC(O)(C(=O)C(=O)N3CCCCC3C(=O)OC(C(C)=CC3CCC(OCC(=O)Nc4ccccc4)C(OC)C3)C(C)C(O)CC1=O)C(C)CC2OC (centres unmarked) [Example 85]
20 | 1.1 | CCC1C=C(C)CC(C)CC(OC)C2OC(O)(C(=O)C(=O)N3CCCCC3C(=O)OC(C(C)=CC3CCC(OCC(=O)NCCCO)C(OC)C3)C(C)C(O)CC1=O)C(C)CC2OC (centres unmarked) [Example 31]
21 | 173 | CCC1C=C(C)CC(C)CC(OC)C2OC(O)(C(=O)C(=O)N3CCCCC3C(=O)OC(C(C)=CC3CCC(OCC(=O)NCC(=O)O)C(OC)C3)C(C)C(O)CC1=O)C(C)CC2OC (centres unmarked) [Example 39]
22 | 0.1 | CCC1C=C(C)CC(C)CC(OC)C2OC(O)(C(=O)C(=O)N3CCCCC3C(=O)OC(C(C)=CC3CCC(OCC(N)=O)C(OC)C3)C(C)C(O)CC1=O)C(C)CC2OC (centres unmarked) [Example 6]
23 | 0.7 | CCC1C=C(C)CC(C)CC(OC)C2OC(O)(C(=O)C(=O)N3CCCCC3C(=O)OC(C(C)=CC3CCC(OCC(=O)N4CCOCC4)C(OC)C3)C(C)C(O)CC1=O)C(C)CC2OC (centres unmarked) [Example 29]
24 | 0.1 | CCC1C=C(C)CC(C)CC(OC)C2OC(O)(C(=O)C(=O)N3CCCCC3C(=O)OC(C(C)=CC3CCC(OCC(=O)NCCN(C)C)C(OC)C3)C(C)C(O)CC1=O)C(C)CC2OC (centres unmarked) [Example 88]
25 | 0.06 | CCC1C=C(C)CC(C)CC(OC)C2OC(O)(C(=O)C(=O)N3CCCCC3C(=O)OC(C(C)=CC3CCC(OCC(=O)N4CCN(C)CC4)C(OC)C3)C(C)C(O)CC1=O)C(C)CC2OC (centres unmarked) [Example 74]
26 | 0.3 | CCC1C=C(C)CC(C)CC(OC)C2OC(O)(C(=O)C(=O)N3CCCCC3C(=O)OC(C(C)=CC3CCC(OCC(=O)NN4CCOCC4)C(OC)C3)C(C)C(O)CC1=O)C(C)CC2OC (centres unmarked) [Example 51]
